Reference: the supplement of paper PMC10307832

How the values were obtained:
Assay in all cases: relative viability (nuclei count vs DMSO), 5 days (fraction); higher = more cells survive
17-AAG + Pemetrexed = compound: C=CCNC1=C2C[C@@H](C)C[C@H](OC)[C@H](O)[C@@H](C)/C=C(\C)[C@H](OC(N)=O)[C@@H](OC)/C=C\C=C(/C)C(=O)NC(=CC1=O)C2=O [17-AAG] + Nc1nc2[nH]cc(CCc3ccc(C(=O)N[C@@H](CCC(=O)O)C(=O)O)cc3)c2c(=O)[nH]1 [Pemetrexed] (partner 0.2 µM)
Summary of the method: (§1)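 Dosing by pin tool came one day after lung cancer cell lines were seeded in 1536-well plates, using either one drug or a fixed anchor-drug dose plus five library-drug doses (not always all listed) in √10 steps. After 5 days, nuclei were counted on 4× images. Relative viability is treated-well nuclei count divided by vehicle-well nuclei count, and values are medians of duplicate plates.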

17-AAG + Olaparib = compound: C=CCNC1=C2C[C@@H](C)C[C@H](OC)[C@H](O)[C@@H](C)/C=C(\C)[C@H](OC(N)=O)[C@@H](OC)/C=C\C=C(/C)C(=O)NC(=CC1=O)C2=O [17-AAG] + O=C(c1cc(Cc2n[nH]c(=O)c3ccccc23)ccc1F)N1CCN(C(=O)C2CC2)CC1 [Olaparib] (partner 8 µM)
Summary of the method: as §1

17-AAG + Alpelisib = compound: C=CCNC1=C2C[C@@H](C)C[C@H](OC)[C@H](O)[C@@H](C)/C=C(\C)[C@H](OC(N)=O)[C@@H](OC)/C=C\C=C(/C)C(=O)NC(=CC1=O)C2=O [17-AAG] + Cc1nc(NC(=O)N2CCC[C@H]2C(N)=O)sc1-c1ccnc(C(C)(C)C(F)(F)F)c1 [Alpelisib] (partner 2 µM)
Summary of the method: as §1

17-AAG + Palbociclib = compound: C=CCNC1=C2C[C@@H](C)C[C@H](OC)[C@H](O)[C@@H](C)/C=C(\C)[C@H](OC(N)=O)[C@@H](OC)/C=C\C=C(/C)C(=O)NC(=CC1=O)C2=O [17-AAG] + CC(=O)c1c(C)c2cnc(Nc3ccc(N4CCNCC4)cn3)nc2n(C2CCCC2)c1=O [Palbociclib] (partner 0.5 µM)
Summary of the method: as §1

| Cell Line | relative viability (17-AAG + Pemetrexed; first compound 0.00128 µM) | relative viability (17-AAG + Pemetrexed; first compound 0.004048 µM) | relative viability (17-AAG + Pemetrexed; first compound 0.0128 µM) | relative viability (17-AAG + Pemetrexed; first compound 0.04048 µM) | relative viability (17-AAG + Pemetrexed; first compound 0.128 µM) | relative viability (17-AAG + Olaparib; first compound 0.00128 µM) | relative viability (17-AAG + Olaparib; first compound 0.004048 µM) | relative viability (17-AAG + Olaparib; first compound 0.0128 µM) | relative viability (17-AAG + Olaparib; first compound 0.04048 µM) | relative viability (17-AAG + Olaparib; first compound 0.128 µM) | relative viability (17-AAG + Alpelisib; first compound 0.00128 µM) | relative viability (17-AAG + Alpelisib; first compound 0.004048 µM) | relative viability (17-AAG + Alpelisib; first compound 0.0128 µM) | relative viability (17-AAG + Alpelisib; first compound 0.04048 µM) | relative viability (17-AAG + Alpelisib; first compound 0.128 µM) | relative viability (17-AAG + Palbociclib; first compound 0.00128 µM) | relative viability (17-AAG + Palbociclib; first compound 0.004048 µM) | relative viability (17-AAG + Palbociclib; first compound 0.0128 µM) | relative viability (17-AAG + Palbociclib; first compound 0.04048 µM) | relative viability (17-AAG + Palbociclib; first compound 0.128 µM) |
| --- | --- | --- | --- | --- | --- | --- | --- | --- | --- | --- | --- | --- | --- | --- | --- | --- | --- | --- | --- | --- |
| LOU-NH91 | 0.392 | 0.371 | 0.304 | 0.302 | 0.371 | 0.894 | 0.759 | 0.546 | 0.395 | 0.386 | 0.66 | 0.592 | 0.532 | 0.446 | 0.34 | 0.537 | 0.51 | 0.463 | 0.349 | 0.394 |
| LU99A | 0.175 | 0.184 | 0.165 | 0.188 | 0.111 | 0.271 | 0.26 | 0.237 | 0.165 | 0.162 | 0.564 | 0.535 | 0.477 | 0.4 | 0.165 | 0.434 | 0.42 | 0.384 | 0.454 | 0.137 |
| LXF-289 | 0.889 | 0.874 | 0.575 | 0.201 | 0.0927 | 1.06 | 0.936 | 0.889 | 0.817 | 0.135 | 1.07 | 1.03 | 0.882 | 0.647 | 0.118 | 0.606 | 0.55 | 0.602 | 0.545 | 0.227 |
| NCI-H23 | 0.564 | 0.735 | 0.442 | 0.202 | 0.147 | 0.364 | 0.296 | 0.155 | 0.109 | 0.107 | 0.717 | 0.472 | 0.434 | 0.2 | 0.148 | 0.503 | 0.456 | 0.292 | 0.192 | 0.14 |
| NCI-H322M | 0.659 | 0.652 | 0.42 | 0.348 | 0.366 | 0.781 | 0.857 | 0.409 | 0.418 | 0.414 | 0.826 | 0.865 | 0.796 | 0.548 | 0.382 | 0.463 | 0.511 | 0.468 | 0.425 | 0.366 |
| NCI-H358 | 0.156 | 0.19 | 0.126 | 0.0833 | 0.0832 | 0.606 | 0.522 | 0.0873 | 0.0667 | 0.0637 | 0.838 | 0.556 | 0.126 | 0.134 | 0.126 | 0.171 | 0.0944 | 0.0747 | 0.0677 | 0.079 |
| NCI-H441 | 0.255 | 0.28 | 0.284 | 0.106 | 0.125 | 0.555 | 0.547 | 0.208 | 0.135 | 0.124 | 0.625 | 0.61 | 0.236 | 0.172 | 0.145 | 0.283 | 0.166 | 0.108 | 0.116 | 0.107 |
| NCI-H460 | 0.0582 | 0.0712 | 0.0849 | 0.0247 | 0.0362 | 0.476 | 0.318 | 0.0627 | 0.0448 | 0.0462 | 0.544 | 0.214 | 0.0127 | 0.0124 | 0.0122 | 0.31 | 0.117 | 0.016 | 0.0279 | 0.0159 |
| NCI-H520 | 0.604 | 0.7 | 0.261 | 0.127 | 0.129 | 0.34 | 0.232 | 0.162 | 0.136 | 0.12 | 0.993 | 0.838 | 0.839 | 0.155 | 0.132 | 0.232 | 0.228 | 0.175 | 0.153 | 0.133 |
| NCI-H647 | 0.203 | 0.179 | 0.102 | 0.0945 | 0.0923 | 0.575 | 0.237 | 0.0687 | 0.0686 | 0.0642 | 1.29 | 0.605 | 0.0949 | 0.107 | 0.0714 | 0.414 | 0.284 | 0.102 | 0.0567 | 0.0782 |
| NCI-H650 | 1.03 | 0.895 | 0.91 | 0.657 | 0.236 | 0.392 | 0.355 | 0.412 | 0.212 | 0.0846 | 1.19 | 1.09 | 1.26 | 0.855 | 0.326 | 0.325 | 0.356 | 0.371 | 0.339 | 0.161 |
| NCI-H661 | 0.883 | 0.926 | 0.861 | 0.367 | 0.31 | 0.804 | 0.716 | 0.529 | 0.333 | 0.253 | 0.573 | 1 | 0.728 | 0.347 | 0.188 | 0.411 | 0.365 | 0.314 | 0.353 | 0.254 |
| NCI-H838 | 0.258 | 0.313 | 0.208 | 0.133 | 0.154 | 0.768 | 0.591 | 0.139 | 0.128 | 0.133 | 0.872 | 0.96 | 0.803 | 0.176 | 0.158 | 0.234 | 0.209 | 0.133 | 0.14 | 0.129 |
| NCI-H1355 | 1 | 0.993 | 1.06 | 0.623 | 0.164 | 0.749 | 0.718 | 0.459 | 0.2 | 0.136 | 0.867 | 0.86 | 0.884 | 0.86 | 0.327 | 0.414 | 0.386 | 0.385 | 0.302 | 0.157 |
| NCI-H1395 | 0.86 | 0.938 | 0.494 | 0.349 | 0.354 | 0.452 | 0.458 | 0.359 | 0.37 | 0.418 | 1.02 | 0.967 | 0.804 | 0.395 | 0.388 | 0.632 | 0.61 | 0.532 | 0.373 | 0.384 |
